Assays:
Format in all cases: in vivo
[1] = tested on: caterpillars of the army worm (Spodoptera frugiperda); assay: Spodoptera frugiperda test (SPODFR spray treatment); settings: 500 g/ha, spray, after 7 days; for pest or weed control at 500 g/ha: Spodoptera frugiperda, 168 h, read-out: activity (caterpillars killed)
Experimental: Spodoptera frugiperda Test (SPODFR Spray Treatment) Solvents: 78.0 parts by weight of acetone • • 1.5 parts by weight of dimethylformamide Emulsifier: 0.5 part by weight of alkylaryl polyglycol ether
(§1) To produce a suitable preparation of active compound, 1 part by weight of active compound is mixed with the stated amounts of solvents and emulsifier, and the concentrate is diluted with emulsifier-containing water to the desired concentration.
Discs of maize leaves (Zea mays) are sprayed with an active compound preparation of the desired concentration and, after drying, populated with caterpillars of the army worm (Spodoptera frugiperda) besetzt.
After 7 days, the activity in % is determined. 100% means that all caterpillars have been killed; 0% means that none of the caterpillars have been killed.

[2] = tested on: Anopheles gambiae (homocygus kdr); assay: Anopheles test (ANPHGB surface treatment); settings: for knock-down activity: 100 mg/m^2, two hours after contact, exposition 30 minutes
Experimental: Anopheles Test (ANPHGB Surface Treatment) Solvent: Acetone
(§2) To produce a suitable preparation of active compound, the active compound is dissolved in acetone (2 mg/ml). The active compound preparation is pipetted onto a glazed tile and, after drying, adult mosquitoes of the species Anopheles gambiae (homocygus kdr) are placed onto the treated tile. The exposition time is 30 minutes.
(§3) Two hours after contact to the treated surface, the knock-down proportion of the test animals in % is determined.
24 hours after contact to the treated surface, the mortality in % is determined. Here, 100% means that all mosquitoes have been killed; 0% means that none of the mosquitoes has been killed.

Aedes aegypti = assay: Aedes test (AEDSAE surface treatment); settings: for knock-down activity: 100 mg/m^2, two hours after contact, exposition 30 minutes; for mortality at 100 mg/m2: Aedes aegypti, read-out: activity (mortality in %)
Experimental: Aedes Test (AEDSAE Surface Treatment)
as §2, with “Aedes aegypti” for “Anopheles gambiae (homocygus kdr)”
as §3
24 hours after contact to the treated surface, the mortality in % is determined Here, 100% means that all mosquitoes have been killed; 0% means that none of the mosquitoes has been killed.

[3] = tested on: greenhouse red spider mite (Tetranychus urticae); assay: Tetranychus test; OP-resistant (TETRUR spray treatment); settings: 500 g/ha, spray, after 6 days; for pest or weed control at 500 g/ha: Tetranychus urticae, 144 h, read-out: activity (spider mites killed)
Experimental: Tetranychus Test; OP-Resistant (TETRUR Spray Treatment) Solvents: 78.0 parts by weight of acetone • • 1.5 parts by weight of dimethylformamide Emulsifier: 0.5 part by weight of alkylaryl polyglycol ether
as §1
Discs of bean leaves (Phaseolus vulgaris) infested by all stages of the greenhouse red spider mite (Tetranychus urticae) are sprayed with an active compound preparation of the desired concentration.
After 6 days, the activity in % is determined. 100% means that all spider mites have been killed; 0% means that none of the spider mites have been killed.

[4] = tested on: green peach aphid (Myzus persicae); assay: Myzus test (MYZUPE spray treatment); settings: 500 g/ha, spray, after 6 days
Experimental: Myzus Test (MYZUPE Spray Treatment) Solvents: 78 parts by weight of acetone • • 1.5 parts by weight of dimethylformamide Emulsifier: 0.5 part by weight of alkylaryl polyglycol ether
as §1
Discs of Chinese cabbage leaves (Brassica pekinensis) which are infested by all stages of the green peach aphid (Myzus persicae) are sprayed with an active compound preparation of the desired concentration.
After 6 days, the activity in % is determined. 100% means that all aphids have been killed; 0% means that none of the aphids have been killed.

[5] = tested on: larvae of the mustard beetle (Phaedon cochleariae); assay: Phaedon test (PHAECO spray treatment); settings: 500 g/ha, spray, after 7 days
Experimental: Phaedon Test ([…] Spray Treatment) Solvents: 78.0 parts by weight of acetone • • 1.5 parts by weight of dimethylformamide Emulsifier: 0.5 part by weight of alkylaryl polyglycol ether To produce a suitable preparation of active compound, 1 part by weight of active compound is mixed with the stated amounts of solvents and emulsifiers, and the concentrate is diluted with emulsifier-containing water to the desired concentration. Discs of Chinese cabbage leaves (Brassica pekinensis) are sprayed with an active compound preparation of the desired concentration and, after drying, populated with larvae of the mustard beetle (Phaedon cochleariae).

[6] = tested on: cat fleas (Ctenocephalides felis, fully sensitive laboratory strain); assay: Contact test against fleas in-vitro (CTECFE contact); settings: 500 g/ha, after 48 h
Experimental: Contact Test Against Fleas In-Vitro (CTECFE Contact)
An amount of 0.9 mg of active compound is weighed out, and 1 ml of acetone is added.
Of this acetone solution, either […] are transferred directly into roll-necked test tubes or an aliquot is diluted with 4 parts of acetone 1:5. For its part, 250 μl of this dilution are pipetted into roll-necked test tubes, or the dilution is diluted further, etc., until the desired number of dilution steps is reached.
The roll-necked test tubes containing the solution of the active compound in acetone are immediately coated in a fume cupboard by 2 h of swing rotation at 30 rpm. After evaporation of the solvent, the active compound contained in the acetone gives, at the highest concentration tested, an active compound content of 500 g/ha (or 500 μg/dm^2) on the surface of the test tube.
10-20 Adult cat fleas (Ctenocephalides felis, fully sensitive laboratory strain) anesthetized with CO2 are transferred into the test tubes prepared in this manner, and the test tubes are closed with a plastic roll-necked lid provided with fine holes.
The test tubes are stored vertically at room temperature and humidity for 24 or 48 h. After 24 and 48 h, the activity of the active compound applied is determined by comparison with an acetone-treated control. Here, an observed normal activity for all fleas corresponds to 0% activity, a strongly restricted or uncoordinated (knock-down) movement or death of all fleas corresponds to 100% activity.

| Compound | activity (caterpillars killed) [1] [%] | knock-down activity [2] [%] | knock-down activity (Aedes aegypti) [%] | activity (spider mites killed) [3] [%] | activity (aphids killed) [4] [%] | activity (beetle larvae killed) [5] [%] | activity against cat fleas [6] [%] | further results |
| --- | --- | --- | --- | --- | --- | --- | --- | --- |
| Cc1ccc(N=C2C=CC(C)(C)CC2=CSc2ccc(F)cc2)cc1 (mixture of isomers) [Example 1-44] | 83 | 100 | 90 | 90 |  |  |  |  |
| Cc1ccc(N=C2C(=CSc3ccc(F)cc3)C(C)c3cc(C)ccc32)cc1 (mixture of isomers) [Example 1-51] | 100 | 100 | 85 |  | 100 | 100 |  |  |
| COc1ccc2c(c1)C(C)C(=CSc1ccc(F)cc1)C2=Nc1ccc(C)cc1 (mixture of isomers) [Example 1-65] | 100 | 100 | 85 | 100 | 100 | 100 |  |  |
| CCOC1=CC(=CSc2ccc(F)cc2)C(=Nc2ccc(C)cc2)CC1 (mixture of isomers) [Example 1-96] |  |  | 80 | 90 | 90 |  |  |  |
| Cc1ccc(N=C2C(=CSc3ccccc3)COc3ccccc32)cc1 [Example 1-7] | 100 | 100 | 85 | 100 | 100 | 100 | 100 |  |
| C(Sc1ccccc1)=C1CCc2ccccc2C1=Nc1ccccc1 [Example 1-8] | 100 | 85 |  | 100 |  | 100 | 100 |  |
| Cc1ccc(N=C2C(=CSc3ccc(F)cc3)CC(C)c3ccccc32)cc1 (stereo not drawn) [Example 1-14] | 100 | 95 |  | 100 | 100 | 100 | 100 |  |
| Cc1ccc(N=C2C(=CSc3ccc(F)cc3)CCc3ccc(F)cc32)cc1 [Example 1-15] | 100 |  |  | 100 | 100 | 100 | 100 |  |
| Cc1ccc(N=C2C(=CSc3ccc(F)cc3)COc3ccc(F)cc32)cc1 [Example 1-23] | 100 |  |  |  |  | 100 | 100 |  |
| COc1ccc2c(c1)C(=Nc1ccc(C)cc1)C(=CSc1ccc(F)cc1)CC2 [Example 1-32] | 100 |  |  | 100 |  |  | 100 |  |
| Cc1ccc(N=C2C(=CSc3ccc(F)cc3)CCc3ccccc32)cc1C [Example 1-41] | 100 | 100 | 95 | 80 | 90 | 100 |  |  |
| Cc1ccc(N=C2C(=CSc3ccc(F)cc3)CCc3ccccc32)c(C)c1 [Example 1-43] | 100 | 100 | 100 | 80 | 90 | 100 |  |  |
| Cc1ccc(N=C2C(=CSc3ccc(F)cc3)CCc3cc(Cl)ccc32)cc1 [Example 1-47] | 100 | 85 |  | 100 | 100 | 100 | 100 |  |
| Cc1ccc(N=C2C(=CSc3ccc(F)cc3)CCc3nc(Cl)ccc32)cc1 [Example 1-54] | 100 |  |  | 80 | 80 | 100 | 100 |  |
| Cc1ccc(N=C2C(=CSc3ccc(F)cc3)CSc3cc(C)ccc32)cc1 [Example 1-76] |  | 100 | 80 |  |  |  |  |  |
| Cc1ccc(N=C2C(=CSc3ccc(F)cc3)COc3cccc(C)c32)cc1 [Example 1-86] |  | 100 | 95 |  |  |  |  |  |
| Cc1cccc(N=C2C(=CSc3ccc(F)cc3)CCc3ccccc32)c1 [Example 1-88] | 100 | 100 | 85 | 100 | 100 | 100 |  |  |
| CCOC1=CC(=Nc2ccc(C)cc2)C(=CSc2ccc(F)cc2F)CC1 [Example 1-98, N-(6-{[(2,4-Difluorophenyl)sulphanyl]methylene}-3-ethoxycyclohex-2-en-1-ylidene)-4-methylaniline] |  |  |  |  |  |  |  | pest or weed control at 500 g/ha [1]: 83%; mortality at 100 mg/m2 (Aedes aegypti): 80%; pest or weed control at 500 g/ha [3]: 100% |
| Cc1ccc(N=C2C(=CSc3cccc(F)c3)C3CCC2C3)cc1 (stereo not drawn) [Example 1-102] |  | 100 | 100 |  |  |  |  |  |
| Cc1ccc(N=C2C(=CSc3ccccc3F)C3CCC2C3)cc1 (stereo not drawn) [Example 1-103] |  | 100 | 100 |  |  |  |  |  |
| Cc1ccc(N=C2c3ccccc3CCC2C(Sc2ccccc2)Sc2ccccc2)cc1 (stereo not drawn) [Example 2-1] |  | 100 | 100 |  |  |  |  | pest or weed control at 500 g/ha [1]: 100%; mortality at 100 mg/m2 ([2]; Anopheles gambiae, read-out: activity (mortality in %)): 100%; mortality at 100 mg/m2 (Aedes aegypti): 100%; pest or weed control at 500 g/ha ([4]; Myzus persicae, 144 h, read-out: activity (aphids killed)): 90%; pest or weed control at 500 g/ha ([5]; Phaedon cochleariae, 168 h, read-out: activity (beetle larvae killed)): 100%; pest or weed control at 500 g/ha [3]: 80% |
| c1ccc(N=C2c3ccccc3CCC2C(Sc2ccccc2)Sc2ccccc2)cc1 (stereo not drawn) [Example 2-2] |  | 100 | 100 |  |  |  |  |  |
| Cc1ccc(N=C2c3ccccc3OCC2C(Sc2ccc(F)cc2)Sc2ccc(F)cc2)cc1 (stereo not drawn) [Example 2-11] | 100 |  |  | 100 | 100 | 100 | 100 |  |

From patent publication US9055743B2, “Alpha, beta-unsaturated imines” (BAYER INTELLECTUAL PROPERTY GMBH, priority 2010, dated 2015)
